Literature values as cited in US20140187635A1, “DICLOFENAC COMPOSITIONS” (THEMIS MEDICARE LIMITED, priority 2012, published 2014).
Read-outs that look alike come from different tables or passages of the source.

Legend:
[1] = system: rabbit; conditions: intravenous
[2] = system: Dog; conditions: intravenous
[3] = system: rat; conditions: in vivo, iv
[4] = system: eyes: rabbit
[5] = system: mouse

Question: For `CCOCCOCCO` [Transcutol, diethylene glycol monoethyl ether], which LD50 [1] is on record?
Answer: 2500 µL/kg

Question: What about the LD50 [2] of the same molecule?
Answer: 3 mL/kg

Question: And the LD50 [3]?
Answer: 4000 mg/kg

Question: And the “eyes: rabbit” value [4]?
Answer: 500 mg

Question: What about the LD50 ([5]; in vivo, ip) of the same molecule?
Answer: 2300 mg/kg

Question: What about the LD50 ([5]; intravenous) of the same molecule?
Answer: 4300 µL/kg

Question: And the “LD50 (subcutaneous: mouse)” value ([5]; subcutaneous)?
Answer: 5500 µL/kg
